According to article PMC11898701, “Evaluating Therapeutic Efficacy of the Vascular Disrupting Agent OXi8007 Against Kidney Cancer in Mice” (Cancers, 2025):
Where two headings read alike, the source gives them in different places. Marks after values point to notes of the source that are not given here. One block for each molecule: values may come before it.

Columns and labels:
[1] = Pharmacokinetic study in Renca-luc tumor-bearing BALB/c mice; format: in vivo, mouse; settings: for Tmax: read-out: Tmax (converted)
Method: Plasma and tissues were harvested at various time points (20 min to 16 h) from Renca-luc tumor-bearing BALB/c male mice following the administration of OXi8007 IP. Mice treated with 250 mg/kg were sacrificed at 20 min (n = 3), 1 h (n = 4), 2 h (n = 4), 4 h (n = 4), 8 h (n = 4), and 16 h (n = 4). Mice were anesthetized, exsanguinated, the tissues were blotted, and then they were weighed and frozen in liquid nitrogen. Homogenized plasma and tissue samples were extracted with acetonitrile with a bead mill; internal standard (CA4 or tri-labeled ^13C-OXi8006) was added to each sample to reach a final concentration of 10 ppb. Samples were centrifuged twice to remove precipitated proteins (16,260× g for 10 min at 4 °C). Clear supernatant was transferred into MS vials, and formic acid was added to a final concentration of 0.1% for LC-MS analysis. […] Mobile phase A consisted of 0.1% v/v formic acid in water, and mobile phase B was acetonitrile, which was mixed by the binary pump with an elution gradient at a flow rate of 0.6 mL/min. Data were analyzed using Xcalibur 4.6 software based on exact masses, and Phoenix WinNonlin 8.5.0 software was used to determine the pharmacokinetic parameters based on a non-compartmental model.

[2] = Blood pressure assessment (CODA system); format: in vivo, mouse
Method: Blood pressure was measured using a CODA system (Kent Scientific, Torrington, CT, USA) on 5 adult male BALB/c mice. Mice were anesthetized with 2% isoflurane in oxygen at 1 dm^3/min and placed on the CODA IR heating pad with a feedback rectal temperature probe and nosecone to maintain anesthesia. An occlusion cuff and VPR cuff were placed on the tail. The baseline measurement was recorded over 30 min, then OXi8007 (250 mg/kg or 325 mg/kg) was administered IP and the blood pressure measurement resumed for 45 min. As positive and negative controls, hydralazine (1 mg/kg) or saline, respectively, were injected IP.

Renca cells = test: Renca sulforhodamine B (SRB) assay, cell growth inhibition; format: cell-based; settings: Mus musculus; Renca cells, SRB, 48 h treatment; read-out: IC50
Method: (§1) In two independent trials of Renca and Renca-luc cells were plated in triplicate at 8000 cells/well into 96-well plates and incubated for 24 h at 37 °C in a humidified incubator with 5% CO2 followed by a 48 h treatment period at ten-fold dilutions of the drug.

Renca-luc cells = test: Renca-luc sulforhodamine B (SRB) assay, cell growth inhibition; format: cell-based; settings: Mus musculus; Renca-luc cells, SRB, 48 h treatment; read-out: IC50
Method: as §1

[3] = male, BALB/c, mouse, ip, glucuronide metabolite, brain, after OXi8007 250 mg/kg
[4] = male, BALB/c, mouse, ip, glucuronide metabolite, heart, after OXi8007 250 mg/kg
[5] = male, BALB/c, mouse, ip, glucuronide metabolite, left kidney, after OXi8007 250 mg/kg
[6] = male, BALB/c, mouse, ip, glucuronide metabolite, liver, after OXi8007 250 mg/kg
[7] = male, BALB/c, mouse, ip, glucuronide metabolite, lungs, after OXi8007 250 mg/kg
[8] = male, BALB/c, mouse, ip, glucuronide metabolite, plasma, after OXi8007 250 mg/kg
[9] = male, BALB/c, mouse, ip, glucuronide metabolite, spleen, after OXi8007 250 mg/kg
[10] = male, BALB/c, mouse, ip, glucuronide metabolite, tumor, after OXi8007 250 mg/kg
[11] = male, BALB/c, mouse, in vivo, ip, 250 mg/kg, brain, after OXi8007 250 mg/kg IP
[12] = male, BALB/c, mouse, in vivo, ip, 250 mg/kg, heart, after OXi8007 250 mg/kg IP
[13] = male, BALB/c, mouse, in vivo, ip, 250 mg/kg, left kidney, after OXi8007 250 mg/kg IP
[14] = male, BALB/c, mouse, in vivo, ip, 250 mg/kg, liver, after OXi8007 250 mg/kg IP
[15] = male, BALB/c, mouse, in vivo, ip, 250 mg/kg, lungs, after OXi8007 250 mg/kg IP
[16] = male, BALB/c, mouse, in vivo, ip, 250 mg/kg, plasma, after OXi8007 250 mg/kg IP
[17] = male, BALB/c, mouse, in vivo, ip, 250 mg/kg, spleen, after OXi8007 250 mg/kg IP
[18] = male, BALB/c, mouse, in vivo, ip, 250 mg/kg, tumor and right kidney, after OXi8007 250 mg/kg IP

- Cmax ([1]; glucuronide metabolite, brain, counts per tissue sample (40 mg), after OXi8007 250 mg/kg): 0.95 counts × 10^−6
- AUC ([1]; glucuronide metabolite, brain, after OXi8007 250 mg/kg): 4.13 h × counts × 10^−6
- Cmax ([1]; glucuronide metabolite, heart, counts per tissue sample (40 mg), after OXi8007 250 mg/kg): 9.8 counts × 10^−6
- AUC ([1]; glucuronide metabolite, heart, after OXi8007 250 mg/kg): 24.52 h × counts × 10^−6
- Cmax ([1]; glucuronide metabolite, left kidney, counts per tissue sample (40 mg), after OXi8007 250 mg/kg): 87.2 counts × 10^−6
- AUC ([1]; glucuronide metabolite, left kidney, after OXi8007 250 mg/kg): 180.6 h × counts × 10^−6
- Cmax ([1]; glucuronide metabolite, liver, counts per tissue sample (40 mg), after OXi8007 250 mg/kg): 28.23 counts × 10^−6
- AUC ([1]; glucuronide metabolite, liver, after OXi8007 250 mg/kg): 128.7 h × counts × 10^−6
- Cmax ([1]; glucuronide metabolite, lungs, counts per tissue sample (40 mg), after OXi8007 250 mg/kg): 20.87 counts × 10^−6
- AUC ([1]; glucuronide metabolite, lungs, after OXi8007 250 mg/kg): 69.33 h × counts × 10^−6
- Cmax ([1]; glucuronide metabolite, plasma, counts per mL, no precise calibration, after OXi8007 250 mg/kg): 1266 counts × 10^−6
- AUC ([1]; glucuronide metabolite, plasma, no precise calibration, after OXi8007 250 mg/kg): 3490 h × counts × 10^−6
- Cmax ([1]; glucuronide metabolite, spleen, counts per tissue sample (40 mg), after OXi8007 250 mg/kg): 6.33 counts × 10^−6
- AUC ([1]; glucuronide metabolite, spleen, after OXi8007 250 mg/kg): 18.39 h × counts × 10^−6
- Cmax ([1]; glucuronide metabolite, tumor, counts per tissue sample (40 mg), after OXi8007 250 mg/kg): 11.65 counts × 10^−6
- AUC ([1]; glucuronide metabolite, tumor, after OXi8007 250 mg/kg): 118.22 h × counts × 10^−6
- half-life [1, 3]: 69 min
- Tmax [1, 3]: 1 h
- half-life [1, 4]: 96.6 min
- Tmax [1, 4]: 1 h
- half-life [1, 5]: 225 min
- Tmax [1, 5]: 1 h
- half-life [1, 6]: 202 min
- Tmax [1, 6]: 1 h
- half-life [1, 7]: 123 min
- Tmax [1, 7]: 1 h
- half-life [1, 8]: 117 min
- Tmax [1, 8]: 1 h
- half-life [1, 9]: 132 min
- Tmax [1, 9]: 1 h
- half-life [1, 10]: 352 min
- Tmax [1, 10]: 4 h
SMILES: COc1ccc2c(C(=O)c3cc(OC)c(OC)c(OC)c3)c(-c3ccc(OC)c(O[C@@H]4O[C@H](C(=O)O)[C@@H](O)[C@H](O)[C@H]4O)c3)[nH]c2c1 [OXi8006 Glucuronide]

SMILES: COc1ccc2c(C(=O)c3cc(OC)c(OC)c(OC)c3)c(-c3ccc(OC)c(O)c3)[nH]c2c1 [OXi8006]
- AUC ([1]; brain, after OXi8007 250 mg/kg IP): 0.54 ng·h/mg
- AUC ([1]; heart, after OXi8007 250 mg/kg IP): 9.04 ng·h/mg
- AUC ([1]; left kidney, after OXi8007 250 mg/kg IP): 8.72 ng·h/mg
- AUC ([1]; liver, after OXi8007 250 mg/kg IP): 18.19 ng·h/mg
- AUC ([1]; lungs, after OXi8007 250 mg/kg IP): 9.45 ng·h/mg
- half-life [1, 11]: 103 min
- Cmax ([1]; male, BALB/c, mouse, in vivo, ip, 250 mg/kg, brain, after OXi8007 250 mg/kg IP, read-out: Cmax): 220 ng/g
- Tmax [1, 11]: 0.333 h
- half-life [1, 12]: 121 min
- Cmax ([1]; male, BALB/c, mouse, in vivo, ip, 250 mg/kg, heart, after OXi8007 250 mg/kg IP, read-out: Cmax): 5310 ng/g
- Tmax [1, 12]: 0.333 h
- half-life [1, 13]: 104 min
- Cmax ([1]; male, BALB/c, mouse, in vivo, ip, 250 mg/kg, left kidney, after OXi8007 250 mg/kg IP, read-out: Cmax): 5860 ng/g
- Tmax [1, 13]: 0.333 h
- half-life [1, 14]: 135 min
- Cmax ([1]; male, BALB/c, mouse, in vivo, ip, 250 mg/kg, liver, after OXi8007 250 mg/kg IP, read-out: Cmax): 9160 ng/g
- Tmax [1, 14]: 0.333 h
- half-life [1, 15]: 154 min
- Cmax ([1]; male, BALB/c, mouse, in vivo, ip, 250 mg/kg, lungs, after OXi8007 250 mg/kg IP, read-out: Cmax): 4180 ng/g
- Tmax [1, 15]: 0.333 h
- half-life [1, 16]: 119 min
- half-life ([1]; male, BALB/c, mouse, in vivo, ip, 250 mg/kg, plasma, after OXi8007 250 mg/kg IP, Renca-luc tumor-bearing BALB/c mice): 119 min
- Cmax ([1]; male, BALB/c, mouse, in vivo, ip, 250 mg/kg, plasma, after OXi8007 250 mg/kg IP, read-out: Cmax): 29000 ng/mL
- Tmax [1, 16]: 0.333 h
- half-life [1, 17]: 103 min
- Cmax ([1]; male, BALB/c, mouse, in vivo, ip, 250 mg/kg, spleen, after OXi8007 250 mg/kg IP, read-out: Cmax): 4450 ng/g
- Tmax [1, 17]: 0.333 h
- half-life [1, 18]: 254 min
- Cmax ([1]; male, BALB/c, mouse, in vivo, ip, 250 mg/kg, tumor and right kidney, after OXi8007 250 mg/kg IP, read-out: Cmax): 2390 ng/g
- Tmax [1, 18]: 1 h
- AUC ([1]; plasma, after OXi8007 250 mg/kg IP, zero to last quantifiable concentration): 47 ^# h × ng/µL
- AUC ([1]; spleen, after OXi8007 250 mg/kg IP): 9.88 ng·h/mg
- AUC ([1]; tumor and right kidney, after OXi8007 250 mg/kg IP): 10.24 ng·h/mg

SMILES: NNc1nncc2ccccc12 [hydralazine, reference compound]
- Hypotension (Δ BP) ([2]; 1 mg/kg): ~ 35 mmHg
- Drop in diastolic blood pressure (Δ) ([2]; 1 mg/kg IP): 31 mmHg
- Drop in mean blood pressure (Δ) ([2]; 1 mg/kg IP): 34 mmHg
- Drop in systolic blood pressure (Δ) ([2]; 1 mg/kg IP): 40 mmHg
- Drop in blood pressure ([2]; 1 mg/kg IP, positive control): about 30%

SMILES: COc1ccc(/C=C\c2cc(OC)c(OC)c(OC)c2)cc1O [CA4, combretastatin A-4, reference compound]
- IC50 (Renca cells): 48 ± 2 nM
- IC50 (Renca-luc cells): 109 ± 23 nM
